Measurements as given in ChEMBL document CHEMBL4184180, “Antitussive and expectorant activities of licorice and its major compounds” (2018).
Active and inactive are the calls of the source. No cut-off for these calls is given here.

Experiments:
Mus musculus [1] = assay: Antitussive activity in ammonia liquor-induced cough ICR mouse model assessed as reduction in cough frequency at 50 mg/kg, po treated with ammonia 1 hr before and 1 hr after test compound dosing measured for 3 mins relative to control; assay type: functional
Mus musculus [2] = assay: Antitussive activity in ammonia liquor-induced cough ICR mouse model assessed as reduction in cough frequency at 50 mg/kg, po treated with ammonia 1 hr before and 2.5 hrs after test compound dosing measured for 3 mins relative to control; assay type: functional
Mus musculus [3] = assay: Antitussive activity in ammonia liquor-induced cough ICR mouse model assessed as reduction in cough frequency at 50 mg/kg, po treated with ammonia 1 hr before and 5 hrs after test compound dosing measured for 3 mins relative to control; assay type: functional
Mus musculus [4] = assay: Antitussive activity in ammonia liquor-induced cough ICR mouse model assessed as reduction in cough frequency at 20 mg/kg, po treated with ammonia 1 hr before and 1 hr after test compound dosing measured for 3 mins; assay type: functional, organism-based
Mus musculus [5] = assay: Antitussive activity in ammonia liquor-induced cough ICR mouse model assessed as reduction in cough frequency at 20 mg/kg, po treated with ammonia 1 hr before and 2.5 hrs after test compound dosing measured for 3 mins; assay type: functional, organism-based
Mus musculus [6] = assay: Antitussive activity in ammonia liquor-induced cough ICR mouse model assessed as reduction in cough frequency at 20 mg/kg, po treated with ammonia 1 hr before and 5 hrs after test compound dosing measured for 3 mins; assay type: functional, organism-based
Mus musculus [7] = assay: Antitussive activity in ammonia liquor-induced cough ICR mouse model assessed as reduction in cough frequency at 50 mg/kg, po treated with ammonia 1 hr before and 1 to 5 hrs after test compound dosing measured for 3 mins relative to control; assay type: functional; design: scale not given: the % may be the effect or the level left
Mus musculus [8] = assay: Antitussive activity in ammonia liquor-induced cough ICR mouse model assessed as reduction in cough frequency at 50 mg/kg, po treated with ammonia 1 hr before and 1 hr after test compound dosing measured for 3 mins in presence of 5-HT receptor antagonist methysergide relative to control; assay type: functional
Mus musculus [9] = assay: Antitussive activity in ammonia liquor-induced cough ICR mouse model assessed as reduction in cough frequency at 50 mg/kg, po treated with ammonia 1 hr before and 1 hr after test compound dosing measured for 3 mins in presence of ATP-sensitive K+ channel blocker glibenclamide relative to control; assay type: functional
Mus musculus [10] = assay: Antitussive activity in ammonia liquor-induced cough ICR mouse model assessed as reduction in cough frequency at 50 mg/kg, po treated with ammonia 1 hr before and 1 to 5 hrs after test compound dosing measured for 3 mins in presence of opioid receptor antagonist naloxone relative to control; assay type: functional, organism-based
Mus musculus [11] = assay: Expectorant activity in ICR mouse assessed as increase in phenol red secretion in trachea at 50 mg/kg, po for 3 days followed by phenol red treatment at 30 mins post last dose measured after 30 mins by UV-Vis spectrophotometric assay relative to control; assay type: functional
Mus musculus [12] = assay: Expectorant activity in ICR mouse assessed as phenol red secretion in trachea at 20 to 50 mg/kg, po for 3 days followed by phenol red treatment at 30 mins post last dose measured after 30 mins by UV-Vis spectrophotometric assay relative to control; assay type: functional
Mus musculus [13] = assay: Antitussive activity in ammonia liquor-induced cough ICR mouse model assessed as increase in latent period at 50 mg/kg, po treated with ammonia 1 hr before and 1 to 5 hrs after test compound dosing measured for 3 mins relative to control; assay type: functional
Mus musculus [14] = assay: Antitussive activity in ammonia liquor-induced cough ICR mouse model assessed as reduction in cough frequency at 20 mg/kg, po treated with ammonia 1 hr before and 1 to 5 hrs after test compound dosing measured for 3 mins relative to control; assay type: functional, organism-based
Mus musculus [15] = assay: Antitussive activity in ammonia liquor-induced cough ICR mouse model assessed as increase in latent period at 20 mg/kg, po treated with ammonia 1 hr before and 1 to 5 hrs after test compound dosing measured at 1 hr post dose; assay type: functional, organism-based
Mus musculus [16] = assay: Antitussive activity in ammonia liquor-induced cough ICR mouse model assessed as increase in latent period at 50 mg/kg, po treated with ammonia 1 hr before and 1 hr after test compound dosing measured at 1 hr post dose; assay type: functional, organism-based

| Structure (SMILES) | Activity (Mus musculus [1]) | Activity (Mus musculus [2]) | Activity (Mus musculus [3]) | Activity (Mus musculus [4]) | Activity (Mus musculus [5]) | Activity (Mus musculus [6]) | further results |
| --- | --- | --- | --- | --- | --- | --- | --- |
| COc1cc(O)ccc1/C=C/C(=O)c1ccc(O)cc1 | inactive | inactive | inactive | inactive | inactive | inactive |  |
| C=CC(C)(C)c1cc(/C=C/C(=O)c2ccc(O)cc2)c(OC)cc1O | inactive | inactive | inactive | inactive | inactive | inactive |  |
| O=C1C[C@@H](c2ccc(O)cc2)Oc2cc(O)ccc21 [LIQUIRTIGENIN] |  |  | Active |  |  |  | Activity (Mus musculus [7]): 30 - 78%; Activity (Mus musculus [8]): inactive; Activity (Mus musculus [9]): inactive; Activity (Mus musculus [10]): Active; fold change (FC) (Mus musculus [11]): 1.57; Activity (Mus musculus [12]): 156.7% |
| CC1(C)[C@@H](O)CC[C@]2(C)[C@H]3C(=O)C=C4[C@@H]5C[C@@](C)(C(=O)O)CC[C@]5(C)CC[C@@]4(C)[C@]3(C)CC[C@@H]12 [ENOXOLONE] |  |  |  |  |  |  | Activity (Mus musculus [7]): 27 - 40%; Activity (Mus musculus [11]): inactive |
| COc1c(CC=C(C)C)c(O)cc2oc(=O)c(-c3ccc(O)cc3O)cc12 | inactive | inactive | inactive | inactive | inactive | inactive |  |
| COc1ccccc1OCC(O)CO (stereo not given) [GUAIFENESIN] |  |  |  |  |  |  | fold change (FC) (Mus musculus [11]): 3; Activity (Mus musculus [12]): 299.5% |
| CC1(C)[C@@H](O[C@H]2O[C@H](C(=O)O)[C@@H](O)[C@H](O)[C@H]2O[C@@H]2O[C@H](C(=O)O)[C@@H](O)[C@H](O)[C@H]2O)CC[C@]2(C)[C@H]3C(=O)C=C4[C@@H]5C[C@@](C)(C(=O)O)CC[C@]5(C)CC[C@@]4(C)[C@]3(C)CC[C@@H]12 | inactive | inactive | inactive | inactive | inactive | inactive | Activity (Mus musculus [11]): inactive |
| CC(C)=CCc1cc(-c2coc3cc(O)c(CC=C(C)C)c(O)c3c2=O)cc(O)c1O | inactive | inactive | inactive | inactive | inactive | inactive |  |
| O=C(/C=C/c1ccc(O[C@H]2O[C@@H](CO)[C@H](O)[C@@H](O)[C@@H]2O[C@@H]2OC[C@](O)(CO)[C@H]2O)cc1)c1ccc(O)cc1O | Active | inactive | inactive | Active | inactive | inactive |  |
| CC1(C)C=Cc2c(ccc3c2OC[C@@H](c2ccc(O)cc2O)C3)O1 |  | Active |  |  |  |  |  |
| O=C1C[C@@H](c2ccc(O[C@@H]3O[C@H](CO)[C@@H](O)[C@H](O)[C@H]3O[C@@H]3OC[C@](O)(CO)[C@H]3O)cc2)Oc2cc(O)ccc21 | 79.1% |  |  |  |  |  | Activity (Mus musculus [7]): 30 - 78%; fold change (FC) (Mus musculus [13]): 1.3 - 1.9; Activity (Mus musculus [14]): Active; Activity (Mus musculus [15]): inactive; Activity (Mus musculus [8]): 30%; Activity (Mus musculus [9]): 28.2%; Activity (Mus musculus [10]): Active; fold change (FC) (Mus musculus [11]): 1.97; Activity (Mus musculus [12]): 196.6% |
| O=C1C[C@@H](c2ccc(O[C@@H]3O[C@H](CO)[C@@H](O)[C@H](O)[C@H]3O)cc2)Oc2cc(O)ccc21 [LIQUIRITIN] |  | Active | Active |  |  |  | Activity (Mus musculus [7]): 30 - 78%; Activity (Mus musculus [8]): inactive; Activity (Mus musculus [9]): inactive; Activity (Mus musculus [10]): Active; fold change (FC) (Mus musculus [11]): 2.5; Activity (Mus musculus [12]): 249.8% |
| O=C(/C=C/c1ccc(O[C@@H]2O[C@H](CO)[C@@H](O)[C@H](O)[C@H]2O)cc1)c1ccc(O)cc1O | inactive | inactive | inactive | inactive | inactive | inactive |  |
| CCN(CC)CCOCCOC(=O)C1(c2ccccc2)CCCC1.O=C(O)CC(O)(CC(=O)O)C(=O)O [CARBETAPENTANE CITRATE] | 58% | 53% | 50% |  |  |  | Activity (Mus musculus [16]): Active |
| CC(C)=CCc1cc2c(=O)cc(-c3ccc(O)cc3)oc2cc1O | inactive | inactive | inactive | inactive | inactive | inactive |  |
| O=C(/C=C/c1ccc(O)cc1)c1ccc(O)cc1O | inactive | Active | Active | inactive | Active | Active | Activity (Mus musculus [11]): inactive |
